Measured values: article PMC4436593, “Endoplasmic reticulum stress-independent activation of unfolded protein response kinases by a small molecule ATP-mimic” (eLife, 2015)

Tests used:
[1] = test system: XBP1 mRNA splicing in HEK293T cells; assay: XBP1 mRNA splicing by RT-PCR in HEK293T cells; type: cell-based, human; details: for XBP1 mRNA splicing (in words): IPAx 2 µM, 4 hr
Description: To examine the effects of IPA in living cells, we monitored the UPR in HEK293T cells using RT-PCR to measure splicing of XBP1 mRNA. […] At a concentration of 2 μM IPA, splicing was induced within 2 hr (lane 5). […] We used tunicamycin (Tm), which induces ER stress by blocking N-linked glycosylation, as a positive control to induce the UPR (Figure 2A, lanes 7, and Figure 2B, lane 4).
(§1) Cells were lysed and total RNA was collected (Total RNA Kit 1, EZ-RNA, EZNA [USA]). PolyA^+ mRNA was reverse transcribed with M-MLV (Invitrogen), and the resulting cDNA was used as a template for PCR amplification across the fragment of XBP1 cDNA containing the intron. Primers used to amplify human XBP1: 5′-[…]-3′ and 5′-[…]-3′. To amplify murine XBP1: 5′-[…]-3′ and 5′-[…]-3′. PCR conditions were as follows: 95°C for 5 min, 95°C for 1 min, 58°C for 30 s, 72°C for 30 s, and 72°C for 5 min, with 20 cycles of amplification. PCR products were resolved on a 2.5% agarose tris-acetate EDTA (TAE) gel. As previously reported, a hybrid amplicon species consisting of unspliced Xbp-1 annealed to spliced Xbp-1 can also be produced through this PCR reaction and was visible as a slower migrating band above the unspliced amplicon. The same cDNA was used as template for PCR of DERLIN-3 and HERPUD1, both ATF6 targets, and GAPDH, which was used as loading control. Primers used included the following: DERLIN-3, 5′-[…]-3′ and 5′-[…]-3′; HERPUD1-1, 5′-[…]-3′ and 5′-[…]-3′; GAPDH, 5′-[…]-3′ and 5′-[…]-3′. PCR conditions were: 95°C × 5 min, 95°C × 1 min, 56°C × 30 s, 72°C for 30 s for 25 cycles, 72°C for 5 min at 4°C. PCR products were resolved on a 2% agarose TAE gel.

[2] = target: IRE1α-KR43 (Homo sapiens, UniProt O75460); assay: IRE1α-KR43 RNA cleavage assay with 5′ [32P]-labeled RNA substrate HP21 (kobs, single turnover); type: biochemical; set-up: IRE1α-KR43 comprises the soluble cytoplasmic portion of IRE1α, composed of the kinase and RNase domains plus 43 amino acids of the linker; 6xHis (N, cleaved yes); made in house; host or cells: SF21 insect cells; details: for 1/2kmax, obs (IRE1α-KR43 concentration at half-maximal kobs) / Hill coefficient n: RNase activity as a function of IRE1α-KR43 concentration
IRE1α-KR43, sequence (O75460 465-977 limits assumed): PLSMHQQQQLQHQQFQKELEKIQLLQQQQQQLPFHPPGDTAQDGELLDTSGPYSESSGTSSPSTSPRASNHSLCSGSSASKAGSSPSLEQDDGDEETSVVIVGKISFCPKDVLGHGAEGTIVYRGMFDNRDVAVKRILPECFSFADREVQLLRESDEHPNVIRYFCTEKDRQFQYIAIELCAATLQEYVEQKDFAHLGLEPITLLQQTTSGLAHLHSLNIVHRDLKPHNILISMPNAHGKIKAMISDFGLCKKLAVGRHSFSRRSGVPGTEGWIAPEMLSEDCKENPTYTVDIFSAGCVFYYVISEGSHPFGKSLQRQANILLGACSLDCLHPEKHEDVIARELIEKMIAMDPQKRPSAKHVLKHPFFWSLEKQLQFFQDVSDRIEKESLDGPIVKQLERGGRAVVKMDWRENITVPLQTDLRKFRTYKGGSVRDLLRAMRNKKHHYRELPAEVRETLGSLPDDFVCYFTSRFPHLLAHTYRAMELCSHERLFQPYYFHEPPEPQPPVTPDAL
Description: To this end, we modified the molecule by substituting urea-linked and variably m- and p-substituted phenyl groups for the benzimidazole of APY29. Diphenyl urea linkers have previously been used successfully in the design of kinase inhibitors ([Dar et al., 2008]; [Dar and Shokat, 2011]; [Korennykh et al., 2012]). In exploring the addition of this chemotype on the APY29 scaffold, we generated a panel of 10 variants (Figure 1B). Each member of the panel was tested in an RNase activity assay using recombinant IRE1α-KR43 and a labeled short hairpin RNA substrate derived from human XBP1 mRNA. IRE1α-KR43 comprises the soluble cytoplasmic portion of IRE1α, composed of the kinase and RNase domains plus 43 amino acids of the linker that bridges the kinase to its transmembrane domain.
Human IRE1α-KR43 with a hexa-histidine (6xHis) tag in its N-terminus was expressed and purified in SF21 cells as described ([Li et al., 2010]). Cells were lysed in buffer containing 20 mM Tris-HCl, pH 7.5, 600 mM NaCl, 2 mM MgCl2, 3 mM imidazole, 10% glycerol, 1% Triton X-100, 3 mM β-mercaptoethanol, COMPlete protease inhibitors (Roche), and PhosSTOP phosphatase inhibitor cocktail (Roche) and passed through an AVESTIN emulsiflex-C3 3× times for complete lysis. The lysate was cleared using centrifugation at 100,000×g. Clear lysate was allowed to incubate on Ni-NTA agarose (Qiagen) beads for 2 hr before being washed 3× times with buffer containing 20 mM Tris-HCl, pH7.5, 600 mM NaCl, 2 mM MgCl2, 30 mM imidazole, 10% glycerol, and 3 mM β-mercaptoethanol. Protein was eluted from the column by raising the imidazole concentration to 250 mM. The eluate was then passed through a HiTrap desalting column (GE Healthcare). Lastly, the 6xHis was cleaved as described ([Li et al., 2010]) and the resulting protein was then loaded onto a HisTrap HP, 5 × 5 ml column to remove the uncleaved protein. The cleaved protein was then loaded on a Mono-S 5/50 GL column (GE Healthcare), and the eluate was then concentrated to 5 mg/ml and loaded on a Superdex 200 HR 10/300 (GE Healthare) column in buffer containing 20 mM Tris-HCl pH 7.5, 250 mM NaCl, 5% Glycerol and 5 mM tris(2-carboxyethyl)phosphine (TCEP). The pure protein solution was aliquoted and stored at −80°C.

[3] = test system: ATF6 transcriptional targets HERPUD1 (HERP1) and DERLIN3 (DERL3); assay: ATF6 target mRNAs HERP1 and DERL3 by RT-PCR in HEK293T cells; type: cell-based; details: IPA 1 μM and 4 μM, Tm
Excerpt: To assess the effects of IPA on the activity of the two other UPR branches, we first examined activation of ATF6. To this end, we monitored mRNA levels by RT-PCR for two ATF6-driven transcriptional target genes, HERP1 and DERL3, in HEK293T cells.
as §1, with “PCR conditions were: 95°C × 5 min, 95°C × 1 min, 56°C × 30 s, 72°C for 30 s for 25 cycles, 72°C for 5 min at 4°C. PCR products were resolved on a 2% agarose TAE gel.” left out

[4] = test system: IRE1α-GFP in T-REx293 cells; assay: IRE1-GFP foci formation in T-REx293 cells (confocal microscopy); type: cell-based; details: doxycycline-induced IRE1α-GFP
Excerpt: We next used a T-REx293 cell line, containing a genome-integrated doxycycline-inducible IRE1α-GFP fusion gene, to monitor IRE1α oligomerization in vivo ([Li et al., 2010]). In the presence of doxycycline, IRE1α-GFP was expressed and localized to the ER (Figure 2D). […] Furthermore, the foci dissolved by 8 hr of treatment as cells attenuated IRE1α signaling even in the presence of unmitigated ER stress (Figure 2D, upper panels) ([Li et al., 2010]). […] While Tm-induced foci became larger and fewer over time as previously observed, IPA-induced foci remained small and numerous.
T-REx293 cells were split 2 days before imaging onto glass-bottom micro-well dishes (MatTek) at 5 × 10^4 cells/dish. Doxycyclin-containing medium (10 nM doxycycline) was added for 24 hr, withdrawn before imaging and replaced with imaging media (Hank's Balanced Salt Solution [Gibco], 2% FBS, and 5 mM HEPES pH 7.0). Images were acquired on a spinning-disk confocal microscope as described ([Li et al., 2010]).

IRE1α activation as a function of enzyme concentration (in words) ([2]; compound 20 μM, versus no-compound control)	IRE1α RNase activation (in words) ([2]; compounds 1 μM, IRE1α-KR43 200 nM, versus DMSO control or cmp6/cmp7)	Structure (SMILES)	XBP1 mRNA splicing (in words) [1]	1/2kmax, obs (IRE1α-KR43 concentration at half-maximal kobs) ([2]; compound 20 μM) [µM]	Hill coefficient n ([2]; compound 20 μM)	time until XBP1 mRNA splicing was induced ([1]; 2 μM IPA) [h]	fold lower enzyme concentration at ½ kmax, obs versus no activator ([2]; compound 20 μM) [fold]	fold activation of IRE1α-KR43 RNase activity ([2]; compounds 1 μM, IRE1α-KR43 200 nM, [32P]-labeled HP21) [fold]	induction of ATF6 target genes HERP1 and DERL3 [3]	IRE1α-GFP foci formation [4]
did not enhance IRE1α activation	inactive	CSc1ccc(NC(=O)Nc2ccc(Nc3nccc(Nc4cc(C5CC5)n(C)n4)n3)cc2)cc1 [IPAx]	did not induce XBP1 mRNA splicing	8	3.3	–	–	–	–	–
–	–	CSc1ccc(NC(=O)Nc2ccc(Nc3nccc(Nc4cc(C5CC5)[nH]n4)n3)cc2)cc1 [IPA]	induced XBP1 mRNA splicing in a time- and dose-dependent manner	0.43	4.2	≤ 2	20	900	no detectable induction	caused relocalization of IRE1α-GFP into foci
